Here are results for 13 compounds from paper PMC4446618, “SAR of Sponge-Inspired Hemibastadin Congeners Inhibiting Blue Mussel PhenolOxidase” (Marine Drugs, 2015).

SMILES strings stand for the structures. Where two headings read alike, the source gives them in different places.

Series [1] deals with blue mussel phenoloxidase (PO). The series can be described thus: Blue mussel PO inhibition assay. The following applies: for IC50: purified enzyme, 25 °C, 10 mM L-DOPA, 50 mM phosphate buffer pH 6.8, 2 h incubation, triplicate; for enzyme inhibitory activity towards blue mussel PO (in words): compared to DBHB (1). Type of series: biochemical, Mytilus edulis. The protocol: PO activity was measured spectrophotometrically as described earlier. The purified enzyme was incubated at 25 °C with 10 mM L-DOPA in 50 mM phosphate buffer of pH 6.8. PO activity was determined by monitoring the increase of absorbance at 475 nm. One unit of enzyme activity was defined as the amount of enzyme that catalyzes the formation of 1 μmol dopachrome per minute under the described experimental conditions. Hemibastadin congeners were added to the assay at concentrations of up to 50 μg/mL. In addition, the biocide TBT (10 μg/mL) was used as a positive standard. Aliquots of pure enzyme were incubated for 2 h with hemibastadin analogues, then the enzyme activity was recorded with L-DOPA or catechol (10 mM) as substrates. All assays were run in triplicate. The results are presented as the concentration of compounds that reduces enzyme velocity by 50% (IC50 values). IC50 values were calculated using MINITAB (Version 14).

For another series, the system named is barnacle larvae. On the set-up: method as in PMID 17713818. Conditions: cited from earlier work.
In series [2] the target is blue mussel phenoloxidase (PO). Further details: method as in PMID 21547349. The following applies: cited from earlier work; for IC50: data derived from a previous investigation, read-out: IC50, inhibition of blue mussel phenoloxidase (PO).

In general, IC50 refers to the midpoint of a concentration-inhibition curve. Broadly, the melting point is the temperature, or range, at which the solid turns liquid.

As for `O=C(NCCc1cc(Br)c(O)c(Br)c1)/C(Cc1cc(Br)c(O)c(Br)c1)=N/O` [Compound 1, 5,5′-dibromohemibastadin-1], in series [1], the IC50 was determined as 0.81 µM. Also, the “antifouling activity (in words)” value with barnacle larvae is recorded as “strong antifouling activity”.
On to `O=C(NCCc1ccc(O)cc1)/C(Cc1ccc(O)cc1)=N/O` [Compound 2, Norbromohemibastadin-1], for which the IC50 in series [2] was 2.41 µM.
`NC(Cc1ccc(O)cc1)C(=O)NCCc1ccc(O)cc1` (stereo not shown) [Compound 3, Tyrosinyltyramine]: in series [2], the “inhibition of blue mussel PO (in words)” value is “completely inactive” and the IC50 is more than 100 µM.
In series [1], `O=C(NCCc1cc(I)c(O)c(I)c1)/C(Cc1cc(I)c(O)c(I)c1)=N/O` [Compound 4, Tetraiodo-norbromohemibastadin-1] had an IC50 of 1.14 µM.
Still for that read-out and setting: the same measure for `O=C(NCCc1cc(Cl)c(O)c(Cl)c1)/C(Cc1cc(Cl)c(O)c(Cl)c1)=N/O` [Compound 5, Tetrachloro-norbromohemibastadin-1]: 1.19 µM.
Regarding `CO/N=C(\Cc1cc(Br)c(OC)c(Br)c1)C(=O)NCCc1cc(Br)c(OC)c(Br)c1` [Compound 6, Tri-O-methyl-5,5′-dibromohemibastadin-1], the IC50 in series [1] was 18.9 ± 0.77 µM. In addition, the “reduction of the enzyme inhibitory activity compared to the parent compound 1” value in series [1] (relative to DBHB (1)) is reported as “more than twenty-fold”.
As to `O=C(NC1CCCCC1)/C(Cc1cc(Br)c(O)c(Br)c1)=N/O` [Compound 7, N-cyclohexyl-3-(3,5-dibromo-4-hydroxyphenyl)-2-(2-hydroxyimino)-propanamide], the IC50 in series [1] was 11.7 ± 0.49 µM.
The compound `CC(C)CNC(=O)/C(Cc1cc(Br)c(O)c(Br)c1)=N/O` [Compound 8, N-(2-methyl-propyl)-3-(3,5-dibromo-4-hydroxyphenyl)-2-(2-hydroxyimino)-propanamide] showed a half-maximal inhibitory concentration (IC50) in series [1] of 17.2 ± 0.76 µM.
`CCCCCCNC(=O)/C(Cc1cc(Br)c(O)c(Br)c1)=N/O` [Compound 9, N-hexyl-3-(3,5-dibromo-4-hydroxyphenyl)-2-(2-hydroxyimino)-propanamide]: the midpoint of inhibition in series [1], the IC50, lay at 16.3 ± 0.83 µM.
For `O=C(NCCc1ccccc1)/C(Cc1cc(Br)c(O)c(Br)c1)=N/O` [Compound 10, N-2-phenylethyl-3-(3,5-dibromo-4-hydroxyphenyl)-2-(2-hydroxyimino)-propanamide], in series [1], the “enzyme inhibitory activity towards blue mussel PO (in words)” value is given as “strong reduction of inhibitory activity” and half-maximal inhibition (IC50) required 22.7 ± 0.88 µM.
`O=C(NCCc1c[nH]cn1)/C(Cc1cc(Br)c(O)c(Br)c1)=N/O` [Compound 11, N-[2-(4-imidazolyl)-ethyl]-3-(3,5-dibromo-4-hydroxyphenyl)-2-(2-hydroxyimino)-propanamide]: the melting point came out at 130 °C. In series [1], 33.2 ± 1.72 µM corresponded to half-maximal inhibition (IC50).
Consider `O=C(NCCc1c[nH]c2ccccc12)/C(Cc1cc(Br)c(O)c(Br)c1)=N/O` [Compound 12, N-[2-(3-indolyl)-ethyl]-3-(3,5-dibromo-4-hydroxyphenyl)-2-(2-hydroxyimino)-propanamide], for which, in series [1], the “enzyme inhibitory activity towards blue mussel PO (in words)” value is given as “complete loss of activity” and the IC50 was more than 100 µM.
On to `CC(=O)C(C)=NO` [Compound 13, 2,3-butanedione monoxime, reference compound], for which the 50% inhibitory concentration (IC50) in series [2] was 8.7 µM.
